Results: ChEMBL document CHEMBL4706653, “Ultra-short lipopeptides against gram-positive bacteria while alleviating antimicrobial resistance” (Eur J Med Chem, 2021)
Values after ≈ are worked out from the molar mass of the structure shown. Active and inactive are the calls of the source. No cut-off for these calls is given here. Residues, ends and D or L forms follow the SMILES beside them. *: point of attachment. Stearoyl = CCCCCCCCCCCCCCCCCC(=O)*

Legend:
[1] = tested on: Staphylococcus epidermidis; assay: Antimicrobial activity against Staphylococcus epidermidis ATCC 12228 after 18 hrs by broth microdilution method; assay type: functional
Staphylococcus aureus [2] = assay: Antimicrobial activity against Staphylococcus aureus ATCC 25923 after 18 hrs by broth microdilution method; assay type: functional
Staphylococcus aureus [3] = assay: Antimicrobial activity against Staphylococcus aureus ATCC 29213 after 18 hrs by broth microdilution method; assay type: functional
Bacillus subtilis = assay: Antimicrobial activity against Bacillus subtilis ATCC 23857 after 18 hrs by broth microdilution method; assay type: functional
Staphylococcus aureus [4] = assay: Antimicrobial activity against methicillin-resistant Staphylococcus aureus 75 after 18 hrs by broth microdilution method; assay type: functional
Staphylococcus aureus [5] = assay: Antimicrobial activity against methicillin-resistant Staphylococcus aureus 113 after 18 hrs by broth microdilution method; assay type: functional
Erythrocyte = assay: Hemolytic activity against mouse erythrocytes measured after 1 hr; assay type: ADME, cell-based
[6] = Therapeutic index, ratio of MHC for mouse RBC to geometric mean of peptide MIC for Staphylococcus epidermidis ATCC 12228; assay type: toxicity; settings: pooled result: one value given for 6 cell lines, strains, targets or settings, read-out: TI
Staphylococcus aureus [7] = assay: Antimicrobial activity against Staphylococcus aureus ATCC 25923 assessed as bacterial killing preincubated for 4 hrs followed by replating on MHB agar and measured after 24 hrs by time kill assay; assay type: functional, organism-based; settings: time 28.0 hrs
Staphylococcus aureus [8] = assay: Antibiofilm activity against Staphylococcus aureus ATCC 25923 at 0.5 to 8 uM after 24 hrs by crystal violet staining based assay; assay type: functional, organism-based; settings: dose 0.5-8 µM
Staphylococcus aureus [9] = assay: Antibiofilm activity against ciprofloxacin-resistant Staphylococcus aureus ATCC 25923 at 0.5 to 8 uM after 24 hrs by crystal violet staining based assay; assay type: functional, organism-based; settings: dose 0.5-8 µM
Lipopolysaccharide (LPS) = assay: Binding affinity to LPS (unknown origin) assessed as bacterial killing at 2 times MIC preincubated for 1 hr followed by Staphylococcus aureus ATCC 25923 addition and measured after 2 hrs by colony counting method; settings: time 3.0 hrs
[10] = Binding affinity to LTA (unknown origin) assessed as bacterial killing at 2 times MIC preincubated for 1 hr followed by Staphylococcus aureus ATCC 25923 addition and measured after 2 hrs by colony counting method; settings: time 3.0 hrs
Cell membrane [11] = assay: Induction of cytoplasmic membrane disruption in Staphylococcus aureus ATCC 25923 measured for 15 mins by DiSC3-5 dye based fluorescence assay
Cell membrane [12] = assay: Induction of membrane disruption in Staphylococcus aureus ATCC 25923 measured after 2 hrs by propidium iodide staining based confocal laser scanning microscopic analysis; assay type: subcellular
Cell membrane [13] = assay: Induction of membrane disruption in Staphylococcus aureus ATCC 25923 measured after 2 hrs by propidium iodide staining based flow cytometry
Staphylococcus aureus [14] = assay: Induction of reactive oxygen species generation in Staphylococcus aureus ATCC 25923 by […] dye based fluorescence assay; assay type: functional, organism-based
Staphylococcus aureus [15] = assay: Induction of nucleic acid leakage in Staphylococcus aureus ATCC 25923 at 4 times MIC; assay type: functional
Staphylococcus aureus [16] = assay: Antimicrobial activity against Staphylococcus aureus ATCC 25923 infected in neutropenia BALB/c mouse assessed as reduction in lung bacterial load at 10 to 20 mg/kg, ip administered staring from 2 hrs post infection and measured 8 hrs post-infected; assay type: functional, organism-based; settings: dose 10-20 mg/kg, time 6.0 hrs
Staphylococcus aureus [17] = assay: Antimicrobial activity against Staphylococcus aureus ATCC 25923 infected in neutropenia BALB/c mouse assessed as reduction in bacterial load in spleen at 10 to 20 mg/kg, ip administered staring from 2 hrs post infection and measured 8 hrs post-infected; assay type: functional, organism-based; settings: dose 10-20 mg/kg, time 6.0 hrs
Staphylococcus aureus [18] = assay: Antimicrobial activity against Staphylococcus aureus ATCC 25923 infected in neutropenia BALB/c mouse assessed as reduction in bacterial load in kidney at 10 to 20 mg/kg, ip administered staring from 2 hrs post infection and measured 8 hrs post-infected; assay type: functional, organism-based; settings: dose 10-20 mg/kg, time 6.0 hrs
Staphylococcus aureus [19] = assay: Antimicrobial activity against Staphylococcus aureus ATCC 25923 infected in neutropenia BALB/c mouse assessed as reduction in bacterial load in liver at 10 to 20 mg/kg, ip administered staring from 2 hrs post infection and measured 8 hrs post-infected; assay type: functional, organism-based; settings: dose 10-20 mg/kg, time 6.0 hrs
Mus musculus = assay: Antiinflammatory activity in Staphylococcus aureus ATCC 25923 infected neutropenia BALB/c mouse assessed as reduction in TNFalpha level in serum at 10 to 20 mg/kg, ip administered staring from 2 hrs post infection and measured 8 hrs post-infected; assay type: functional, organism-based; settings: dose 10-20 mg/kg, time 6.0 hrs
Staphylococcus aureus [20] = assay: Ratio of MIC for antimicrobial activity against Staphylococcus aureus ATCC 25923 in presence of 5% serum to MIC for antimicrobial activity against Staphylococcus aureus ATCC 25923 in absence of serum; assay type: functional
Staphylococcus aureus [21] = assay: Ratio of MIC for antimicrobial activity against Staphylococcus aureus ATCC 25923 in presence of 10% serum to MIC for antimicrobial activity against Staphylococcus aureus ATCC 25923 in absence of serum; assay type: functional
Staphylococcus aureus [22] = assay: Ratio of MIC for antimicrobial activity against Staphylococcus aureus ATCC 25923 in presence of 2.5% serum to MIC for antimicrobial activity against Staphylococcus aureus ATCC 25923 in absence of serum; assay type: functional
Staphylococcus aureus [23] = assay: Antimicrobial activity against Staphylococcus aureus ATCC 25923 assessed as bacterial killing at 0.5 times MIC preincubated for 4 hrs followed by replating on MHB agar and measured after 24 hrs by time kill assay; assay type: functional, organism-based; settings: time 28.0 hrs
Staphylococcus aureus [24] = assay: Antimicrobial activity against Staphylococcus aureus ATCC 25923 assessed as bacterial killing at 4 times MIC preincubated for 30 mins followed by replating on MHB agar and measured after 24 hrs by time kill assay; assay type: functional, organism-based; settings: time 24.5 hrs
Staphylococcus aureus [25] = assay: Antimicrobial activity against Staphylococcus aureus ATCC 25923 assessed as bacterial killing at 2 times MIC preincubated for 2 hrs followed by replating on MHB agar and measured after 24 hrs by time kill assay; assay type: functional, organism-based; settings: time 26.0 hrs
Staphylococcus aureus [26] = assay: Antimicrobial activity against Staphylococcus aureus ATCC 25923 assessed as bacterial killing at MIC preincubated for 4 hrs followed by replating on MHB agar and measured after 24 hrs by time kill assay; assay type: functional, organism-based; settings: time 28.0 hrs
Staphylococcus aureus [27] = assay: Antimicrobial activity against Staphylococcus aureus ATCC 25923 at 0.5 times MIC after 15 passages by broth microdilution method; assay type: functional, organism-based
[28] = tested on: Staphylococcus epidermidis; assay: Antimicrobial activity against Staphylococcus epidermidis ATCC 12228 at 0.5 times MIC after 15 passages by broth microdilution method; assay type: functional, organism-based
Cell membrane [29] = assay: Induction of membrane disruption in Staphylococcus aureus ATCC 25923 assessed as PI-positive cells at 4 times MIC measured after 2 hrs by propidium iodide staining based flow cytometry relative to control
Cell membrane [30] = assay: Induction of membrane disruption in Staphylococcus aureus ATCC 25923 assessed as PI-positive cells at 2 times MIC measured after 2 hrs by propidium iodide staining based flow cytometry relative to control
HEK-293T = assay: Cytotoxicity against HEK293T cells assessed as reduction in cell viability at 1 uM measured after 24 hrs by MTT assay; assay type: cell-based; settings: human

SMILES	MIC [1]	MIC (Staphylococcus aureus [2])	MIC (Staphylococcus aureus [3])	MIC (Bacillus subtilis)	MIC (Staphylococcus aureus [4])	MIC (Staphylococcus aureus [5])	MHC10 (Erythrocyte)	selectivity ratio [6]	also measured
CCCCCCCCCCCCCCCCCC(=O)N[C@@H](CCCNC(=N)N)C(=O)N[C@@H](CCCNC(=N)N)C(=O)N[C@@H](CCCNC(=N)N)C(N)=O (Stearoyl-Arg-Arg-Arg-NH2)	8 µM (≈ 6.02 µg/mL)	4 µM (≈ 3.01 µg/mL)	4 µM (≈ 3.01 µg/mL)	8 µM (≈ 6.02 µg/mL)	4 µM (≈ 3.01 µg/mL)	2 µM (≈ 1.5 µg/mL)	32 µM	4	
CCCCCCCCCCCCCCCCCC(=O)N[C@@H](CCCNC(=N)N)C(=O)N[C@@H](CCCNC(=N)N)C(=O)N[C@@H](Cc1c[nH]c2ccccc12)C(N)=O (Stearoyl-Arg-Arg-Trp-NH2)	4 µM (≈ 3.13 µg/mL)	8 µM (≈ 6.26 µg/mL)	8 µM (≈ 6.26 µg/mL)	8 µM (≈ 6.26 µg/mL)	16 µM (≈ 12.5 µg/mL)	8 µM (≈ 6.26 µg/mL)	32 µM	3.69	
CCCCCCCCCCCCCCCCCC(=O)N[C@@H](CCCNC(=N)N)C(=O)N[C@@H](Cc1c[nH]c2ccccc12)C(=O)N[C@@H](CCCNC(=N)N)C(N)=O (Stearoyl-Arg-Trp-Arg-NH2)	8 µM (≈ 6.26 µg/mL)	16 µM (≈ 12.5 µg/mL)	128 µM (≈ 100 µg/mL)	16 µM (≈ 12.5 µg/mL)	8 µM (≈ 6.26 µg/mL)	8 µM (≈ 6.26 µg/mL)	32 µM	1.04	
CCCCCCCCCCCCCCCCCC(=O)N[C@@H](CCCNC(=N)N)C(=O)N[C@@H](Cc1c[nH]c2ccccc12)C(=O)N[C@@H](Cc1c[nH]c2ccccc12)C(N)=O (Stearoyl-Arg-Trp-Trp-NH2)	128 µM (≈ 104 µg/mL)	> 128 µM	> 128 µM	> 128 µM	> 128 µM	> 128 µM	256 µM	1.09	
CCCCCCCCCCCCCCCCCC(=O)N[C@@H](Cc1c[nH]c2ccccc12)C(=O)N[C@@H](CCCNC(=N)N)C(=O)N[C@@H](CCCNC(=N)N)C(N)=O (Stearoyl-Trp-Arg-Arg-NH2)	8 µM (≈ 6.26 µg/mL)	16 µM (≈ 12.5 µg/mL)	32 µM (≈ 25 µg/mL)	16 µM (≈ 12.5 µg/mL)	8 µM (≈ 6.26 µg/mL)	16 µM (≈ 12.5 µg/mL)	32 µM	2	
O=C(O)c1cn(C2CC2)c2cc(N3CCNCC3)c(F)cc2c1=O [CIPROFLOXACIN]	< 1 µM	1 µM (≈ 0.331 µg/mL)	1 µM (≈ 0.331 µg/mL)	< 1 µM	128 µM (≈ 42.4 µg/mL)	< 1 µM			Activity (Staphylococcus aureus [7]): inactive; Activity (Staphylococcus aureus [8]): Active; Activity (Staphylococcus aureus [9]): Active; Activity (Lipopolysaccharide (LPS)): inactive; Activity [10]: inactive; Activity (Cell membrane [11]): inactive; Activity (Cell membrane [12]): inactive; Activity (Cell membrane [13]): inactive; Activity (Staphylococcus aureus [14]): Active; Activity (Staphylococcus aureus [15]): Active; Activity (Staphylococcus aureus [16]): Active; Activity (Staphylococcus aureus [17]): Active; Activity (Staphylococcus aureus [18]): Active; Activity (Staphylococcus aureus [19]): Active; Activity (Mus musculus): Active
CC[C@H](C)[C@H](NC(=O)CN)C(=O)NCC(=O)N[C@@H](C)C(=O)N[C@H](C(=O)N[C@@H](CC(C)C)C(=O)N[C@@H](CCCCN)C(=O)N[C@H](C(=O)N[C@@H](CC(C)C)C(=O)N[C@H](C(=O)N[C@H](C(=O)NCC(=O)N[C@@H](CC(C)C)C(=O)N1CCC[C@H]1C(=O)N[C@@H](C)C(=O)N[C@@H](CC(C)C)C(=O)N[C@H](C(=O)N[C@@H](CO)C(=O)N[C@@H](Cc1c[nH]c2ccccc12)C(=O)N[C@H](C(=O)N[C@@H](CCCCN)C(=O)N[C@@H](CCCNC(=N)N)C(=O)N[C@@H](CCCCN)C(=O)N[C@@H](CCCNC(=N)N)C(=O)N[C@@H](CCC(N)=O)C(=O)N[C@@H](CCC(N)=O)C(N)=O)[C@@H](C)CC)[C@@H](C)CC)[C@@H](C)O)[C@@H](C)O)C(C)C)C(C)C [MELITTIN]							2 µM	0.8	Ratio (Staphylococcus aureus [20]): 2; Ratio (Staphylococcus aureus [21]): 2; Ratio (Staphylococcus aureus [22]): 2; Activity (Staphylococcus aureus [23]): inactive; Activity (Staphylococcus aureus [24]): Active; Activity (Staphylococcus aureus [25]): Active; Activity (Staphylococcus aureus [26]): Active; Activity (Staphylococcus aureus [27]): Active; Activity [28]: Active; Activity (Staphylococcus aureus [8]): Active; Activity (Staphylococcus aureus [9]): Active; Activity (Lipopolysaccharide (LPS)): Active; Activity [10]: Active; Activity (Cell membrane [11]): Active; Activity (Cell membrane [12]): Active; Activity (Cell membrane [29]): 92.5%; Activity (Cell membrane [30]): 91.9%; Activity (Staphylococcus aureus [14]): Active; Activity (Staphylococcus aureus [15]): inactive; Activity (HEK-293T): Toxic
